Experiments:
[1] = target: T1, human muscarinic M1 receptor (Homo sapiens, UniProt P11229); assay: Alphascreen Surefire phospho-ERK1/2 functional assay, M1; format: cell-based; conditions: for EC50: phospho-ERK1/2, * = variable results, read-out: pEC50 M1 (converted); for Emax: CHO, read-out: % Emax cf. ACh, M1, CHO cells stably expressing human M1
T1 sequence (P11229 1-460): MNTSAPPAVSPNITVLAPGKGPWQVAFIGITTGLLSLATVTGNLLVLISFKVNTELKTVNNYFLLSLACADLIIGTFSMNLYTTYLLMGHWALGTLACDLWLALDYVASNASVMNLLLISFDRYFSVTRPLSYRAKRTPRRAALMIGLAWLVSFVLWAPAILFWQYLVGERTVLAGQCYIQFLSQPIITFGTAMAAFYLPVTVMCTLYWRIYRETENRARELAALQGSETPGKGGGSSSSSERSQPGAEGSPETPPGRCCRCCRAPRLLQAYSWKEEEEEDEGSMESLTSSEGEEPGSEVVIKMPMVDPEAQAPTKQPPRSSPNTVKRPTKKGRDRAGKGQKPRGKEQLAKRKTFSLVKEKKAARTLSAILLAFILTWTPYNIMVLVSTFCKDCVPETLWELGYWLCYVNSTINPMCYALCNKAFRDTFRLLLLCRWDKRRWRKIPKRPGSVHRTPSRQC

[2] = target: T2, human muscarinic M4 receptor (Homo sapiens, UniProt P08173); assay: Alphascreen Surefire phospho-ERK1/2 functional assay, M4; format: cell-based; conditions: for EC50: CHO cells stably expressing human M4, phospho-ERK1/2, * = variable results, read-out: pEC50 M4 (converted); for Emax: CHO, read-out: % Emax cf. ACh, M4, CHO cells stably expressing human M4, relative to ACh
T2 construct: expressed in transfected cells
T2 sequence (P08173 1-479): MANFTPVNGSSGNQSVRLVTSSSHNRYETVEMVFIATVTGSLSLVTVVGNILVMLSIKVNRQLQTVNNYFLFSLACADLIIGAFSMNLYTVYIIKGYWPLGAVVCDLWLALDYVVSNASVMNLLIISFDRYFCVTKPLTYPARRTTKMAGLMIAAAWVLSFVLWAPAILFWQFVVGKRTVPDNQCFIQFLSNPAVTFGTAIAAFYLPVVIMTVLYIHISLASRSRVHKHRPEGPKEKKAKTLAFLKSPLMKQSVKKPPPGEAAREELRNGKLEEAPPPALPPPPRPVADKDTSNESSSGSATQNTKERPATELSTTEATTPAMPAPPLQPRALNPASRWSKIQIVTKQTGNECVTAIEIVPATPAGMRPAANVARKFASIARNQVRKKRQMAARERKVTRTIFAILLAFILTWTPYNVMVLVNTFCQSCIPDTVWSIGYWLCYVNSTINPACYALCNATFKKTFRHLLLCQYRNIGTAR

[3] = CHO cells stably expressing human M1

EC50 [1, 3] [nM] | Emax ([1]; relative to ACh) [%] | EC50 [2] [nM] | Emax [2] [%] | % Emax cf. ACh, M1 ([1]; CHO cells stably expressing human M1, relative to ACh) [%] | Structure (SMILES)
> 20000 | 18 | 12.6 | 72 | – | CCOC(=O)N1CCC2(CC(N3CCC(N4CCC[C@@H]4c4nccs4)CC3)C2)C1 (single isomer, unassigned) [2-132 Isomer 2]
398 | 38 | 100 | 76 | – | CCOC(=O)N1CCC2(CC(N3CCC(c4c(C)cnn4CC)CC3)C2)C1 (single isomer, unassigned) [1-59 Isomer 2, ethyl 2-[4-(1-ethyl-4-methyl-1H-pyrazol-5-yl)piperidin-1-yl]-6-azaspiro[3.4]octane-6-carboxylate]
1260 | 73 | > 20000 | 10 | – | CCOC(=O)N1CCC2(CC(N3CCC(n4cnnn4)CC3)C2)C1 (single isomer, unassigned) [1-62 Isomer 2, ethyl 2-[4-(1H-tetrazol-1-yl)piperidin-1-yl]-6-azaspiro[3.4]octane-6-carboxylate]
3160 | 37 | 316 | 75 | – | CCOC(=O)N1CCC2(CC(N3CCC(c4nnnn4C4CC4)CC3)C2)C1 (single isomer, unassigned) [1-67 Isomer 2, ethyl 2-[4-(1-cyclopropyl-1H-tetrazol-5-yl)piperidin-1-yl]-6-azaspiro[3.4]octane-6-carboxylate]
> 20000 | 7 | > 20000 | 3 | – | CCOC(=O)N1CCC2(CC(N3CCC(N4CC(F)(F)C[C@H]4C(=O)NC)CC3)C2)C1 (single isomer, unassigned) [2-93 Isomer 2]
501 | 30 | 200 | 41 | – | CCOC(=O)N1CCC2(CC(N3CCC(c4nc(C(F)(F)F)c[nH]4)CC3)C2)C1 (single isomer, unassigned) [1-3 Isomer 2, ethyl 2-(4-(4-(trifluoromethyl)-1H-imidazol-2-yl)piperidin-1-yl)-6-azaspiro[3.4]octane-6-carboxylate]
> 20000 | 11 | 126 | 72 | – | [2H]C([2H])([2H])C([2H])([2H])OC(=O)N1CCC2(CC(N3CCC(c4ccnn4C)CC3)C2)C1 (single isomer, unassigned) [1-73 Isomer 2, (^2H5)ethyl 2-[4-(1-methyl-1H-pyrazol-5-yl)piperidin-1-yl]-6-azaspiro[3.4]octane-6-carboxylate]
> 20000 | 17 | 158 | 69 | – | [2H]C([2H])([2H])COC(=O)N1CCC2(CC(N3CCC(c4ccnn4C)CC3)C2)C1 (single isomer, unassigned) [1-72 Isomer 2, (2,2,2-^2H3)ethyl 2-[4-(1-methyl-1H-pyrazol-5-yl)piperidin-1-yl]-6-azaspiro[3.4]octane-6-carboxylate]
3160 | – | 501 | 65 | 65 | CCOC(=O)N1CCC2(CC(N3CCC(c4c(C)cc[nH]c4=O)CC3)C2)C1 (single isomer, unassigned) [3-14 Isomer 1, ethyl 2-[4-(4-methyl-2-oxo-1,2-dihydropyridin-3-yl)piperidin-1-yl]-6-azaspiro[3.4]octane-6-carboxylate]
251 | 60 | 39.8 | 36 | – | CCOC(=O)N1CCC2(CC(N3CCC(c4cc(C)c[nH]c4=O)CC3)C2)C1 (single isomer, unassigned) [3-15 Isomer 2, ethyl 2-[4-(5-methyl-2-oxo-1,2-dihydropyridin-3-yl)piperidin-1-yl]-6-azaspiro[3.4]octane-6-carboxylate]
> 20000 | 11 | 158 | 34 | – | CCOC(=O)N1CCC2(CC(N3CCC(C4CCCCN4C(=O)NC)CC3)C2)C1 (single isomer, unassigned) [4-20 Isomer 2, ethyl 2-[1-(methylcarbamoyl)-2,4′-bipiperidin-1′-yl]-6-azaspiro[3.4]octane-6-carboxylate]
> 20000 | 15 | 79.4 | 60 | – | CCOC(=O)N1CCC2(CC(N3CCC(N4CCCC4c4ccn[nH]4)CC3)C2)C1 (single isomer, unassigned) [2-126 Isomer 2, ethyl 2-{4-[2-(1H-pyrazol-5-yl)pyrrolidin-1-yl]piperidin-1-yl}-6-azaspiro[3.4]octane-6-carboxylate]
2510 | 36 | 100 | 91 | – | COC(=O)N1CCC2(CC(N3CCC([C@@H]4CCCN4C(=O)N4CC(F)(F)C4)CC3)C2)C1 (single isomer, unassigned) [2-41 Isomer 2]
> 20000 | 82 | 1000 | 24 | – | CCOC(=O)N1CCC2(CC(N3CCC(n4nnnc4C)CC3)C2)C1 (single isomer, unassigned) [1-63 Isomer 2, ethyl 2-[4-(5-methyl-1H-tetrazol-1-yl)piperidin-1-yl]-6-azaspiro[3.4]octane-6-carboxylate]
794 | 94 | 79.4 | 42 | – | COC(=O)N1CCC2(CC(N3CCC(C4CCCNC4=O)CC3)C2)C1 (single isomer, unassigned) [4-2 Isomer 4, methyl 2-(2-oxo-3,4′-bipiperidin-1′-yl)-6-azaspiro[3.4]octane-6-carboxylate]
> 20000 | 51 | 794 | 74 | – | CCOC(=O)N1CCC2(CC(N3CCC(c4nccn4CC(=O)NC)CC3)C2)C1 (single isomer, unassigned) [1-54 Isomer 2, ethyl 2-(4-{1-[2-(methylamino)-2-oxoethyl]-1H-imidazol-2-yl}piperidin-1-yl)-6-azaspiro[3.4]octane-6-carboxylate]
1000 | 78 | 39.8 | 111 | – | CCOC(=O)N1CCC2(CC(N3CCC(N4C[C@@H](F)C[C@@H]4CO)CC3)C2)C1 (single isomer, unassigned) [2-137 Isomer 2]
794 | 44 | 126 | 36 | – | CCOC(=O)N1CCC2(CC(N3CCC(c4nc(C)no4)CC3)C2)C1 (single isomer, unassigned) [1-29 Isomer 2, ethyl 2-[4-(3-methyl-1,2,4-oxadiazol-5-yl)piperidin-1-yl]-6-azaspiro[3.4]octane-6-carboxylate]
> 20000 | 27 | 251 | 106 | – | CCOC(=O)N1CCC2(CC(N3CCC(N4CCCC[C@@H]4C(=O)N(C)C)CC3)C2)C1 (single isomer, unassigned) [4-17 Isomer 2]
79.4 | 99 | 5.01 | 104 | – | [2H]C([2H])([2H])COC(=O)N1CCC2(CC(N3CCC(n4cccn4)CC3)C2)C1 (single isomer, unassigned) [1-69 Isomer 2, (2,2,2-^2H3)ethyl 2-[4-(1H-pyrazol-1-yl)piperidin-1-yl]-6-azaspiro[3.4]octane-6-carboxylate]
